Measured values published in publication PMC8698070, “The Zoonotic Helminth Parasite Fasciola hepatica: Virulence-Associated Cathepsin B and Cathepsin L Cysteine Peptidases Secreted by Infective Newly Excysted Juveniles (NEJ)” (Animals : an Open Access Journal from MDPI, 2021).
Entries after “also recorded” stand apart in the source; their conditions may differ. Values belong to the compound of their own block, whether it stands above or below them. Where a SMILES comes first, the peptide text is derived from it. The star is where a group is joined. Cbz = O=C(OCc1ccccc1)*; CH2F = FC*

Legend:
FhCB2 = FhCB2 (Fasciola hepatica, UniProt A5X493); assay: Inhibition of recombinant FhCB2, fluorogenic substrate assay (Z-Val-Ile-Arg-AMC); format: biochemical; settings: for inhibition of enzymatic activity (inhibitor screen, Figure 5), in words: FhCB2, inhibitor 1000-15 nM; for Ki: read-out: inhibition constant Ki
Chain of FhCB2 (A5X493 entry or part of it): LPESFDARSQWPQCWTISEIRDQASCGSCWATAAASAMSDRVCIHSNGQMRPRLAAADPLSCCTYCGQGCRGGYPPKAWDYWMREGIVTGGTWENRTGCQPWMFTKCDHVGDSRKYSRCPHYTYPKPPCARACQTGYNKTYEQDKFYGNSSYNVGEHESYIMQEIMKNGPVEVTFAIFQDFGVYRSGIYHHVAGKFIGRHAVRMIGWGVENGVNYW
Protocol: (§1) Recombinant peptidases were assayed for enzymatic activity using a fluorogenic substrate assay. The reactions were carried out in 0.1 M C-P buffer (pH 7.0) with 1 mM DTT in a final volume of 200 μL, in a black 96-well plate. Each well contained activated enzyme (140 nM) and 20 μM fluorogenic substrate, which was added to start the reaction. All assays were run in triplicate at 37 °C for 1 h. Enzyme activity was monitored by rate of hydrolysis and subsequent release of the AMC group on the synthetic peptide substrates at an excitation wavelength of 370 nm and an emission wavelength of 460 nm, as relative fluorescence units (RFU), in a PolarStar Omega Spectrophotometer (BMG Labtech, Aylesbury, UK). All data were plotted and analysed using MARS Data Analysis Software (BMG Labtech, UK) and GraphPad Prism version 5.
(§2) Commercially available inhibitors of cathepsin B (Ca074 and Ca074-OMe), cathepsin L (L, L1, LII, LIII and LIV), cathepsin K (KI, KII and KIII) and cathepsin S were purchased from Merck Millipore (Cork, Ireland; Supplementary Figure S2). The broad-spectrum papain peptidase inhibitor Z-Phe-Ala-FMK was purchased from Enzo Life Sciences (Exeter, UK). These were used to determine and compare the inhibition constant (Ki) against the recombinant FhCBs and FhCL3. All the assays were carried out in 0.1 M C-P buffer with 1 mM DTT and 0.01% Brij® L23, at the pH corresponding to the optimum for each enzyme in a total 200 µL reaction volume. The peptidases (140 nM) were pre-incubated with the inhibitor (1000-15 nM) at room temperature, for 30 min, before starting the reaction by the addition of the substrate that was optimal for each enzyme (FhCB1, Z-Phe-Arg-AMC; FhCB2 and FhCB3, Z-Val-Ile-Arg-AMC; FhCL3, Z-Gly-Pro-Arg-AMC). Substrate concentrations were equal to KM (shown in Table 1) and the apparent inhibition constant (Ki^app) values were calculated with GraphPad Prism 5, using the Morrison equation for tight binding inhibition (Equation (3)). For competitive inhibitors, such as those used in this study, Ki^app was fitted to a second equation (Equation (4)) from which Ki can be determined. (3) vi/vo=1−([E])+[I]+Kiapp)−([E]+[I]+Kiapp)^2−4[E][I] /2[E] (4) Kiapp=Ki(1+[S]/KM)

FhCB1 = FhCB1 (Fasciola hepatica, UniProt Q8I7B2); assay: Inhibition of recombinant FhCB1, fluorogenic substrate assay (Z-Phe-Arg-AMC); format: biochemical; settings: for inhibition of enzymatic activity (inhibitor screen, Figure 5), in words: FhCB1, inhibitor 1000-15 nM; for Ki: read-out: inhibition constant Ki
Chain of FhCB1 (Q8I7B2 entry or part of it): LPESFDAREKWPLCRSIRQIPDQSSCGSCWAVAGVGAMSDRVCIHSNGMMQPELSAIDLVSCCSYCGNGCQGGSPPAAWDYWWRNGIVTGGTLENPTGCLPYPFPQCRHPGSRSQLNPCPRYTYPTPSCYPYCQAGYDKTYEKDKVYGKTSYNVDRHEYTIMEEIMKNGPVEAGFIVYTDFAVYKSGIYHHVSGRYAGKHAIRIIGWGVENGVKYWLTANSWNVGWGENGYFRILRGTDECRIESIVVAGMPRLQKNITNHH
Protocol: as §1, §2

FhCL3 = FhCL3 (Fasciola hepatica, UniProt A0A879R2T5); assay: Inhibition of recombinant FhCL3, fluorogenic substrate assay (Z-Gly-Pro-Arg-AMC); format: biochemical; settings: for inhibition of enzymatic activity (inhibitor screen, Figure 5), in words: FhCL3, inhibitor 1000-15 nM; for Ki: read-out: inhibition constant Ki
Chain of FhCL3 (A0A879R2T5 entry or part of it): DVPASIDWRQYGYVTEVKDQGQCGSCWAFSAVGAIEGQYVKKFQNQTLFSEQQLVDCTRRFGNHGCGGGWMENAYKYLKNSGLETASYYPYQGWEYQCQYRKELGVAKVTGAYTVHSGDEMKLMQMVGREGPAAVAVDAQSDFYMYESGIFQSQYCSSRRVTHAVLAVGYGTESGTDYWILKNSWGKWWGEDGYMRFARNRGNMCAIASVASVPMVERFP
Protocol: as §1, §2

FhCB3 = FhCB3 (Fasciola hepatica, UniProt A7UNB2); assay: Inhibition of recombinant FhCB3, fluorogenic substrate assay (Z-Val-Ile-Arg-AMC); format: biochemical; settings: for inhibition of enzymatic activity (inhibitor screen, Figure 5), in words: FhCB3, inhibitor 1000-15 nM; for Ki: read-out: inhibition constant Ki
Chain of FhCB3 (A7UNB2 entry or part of it): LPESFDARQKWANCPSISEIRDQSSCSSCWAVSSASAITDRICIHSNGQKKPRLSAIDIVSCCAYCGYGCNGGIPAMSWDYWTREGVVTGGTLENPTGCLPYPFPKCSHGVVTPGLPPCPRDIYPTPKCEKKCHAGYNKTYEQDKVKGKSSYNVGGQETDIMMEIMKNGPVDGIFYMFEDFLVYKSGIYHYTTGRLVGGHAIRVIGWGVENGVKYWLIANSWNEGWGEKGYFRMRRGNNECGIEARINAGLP
Protocol: as §1, §2

cathepsin L1 (HsCL1) = molecular target: T1, cathepsin L1 (HsCL1) (Homo sapiens, UniProt P07711); assay: Inhibitor screen against human cathepsin L1 control; format: biochemical
T1 construct: purchased Sigma-Aldrich; host or cells: human embryonic kidney cells
T1 sequence (P07711 114-333): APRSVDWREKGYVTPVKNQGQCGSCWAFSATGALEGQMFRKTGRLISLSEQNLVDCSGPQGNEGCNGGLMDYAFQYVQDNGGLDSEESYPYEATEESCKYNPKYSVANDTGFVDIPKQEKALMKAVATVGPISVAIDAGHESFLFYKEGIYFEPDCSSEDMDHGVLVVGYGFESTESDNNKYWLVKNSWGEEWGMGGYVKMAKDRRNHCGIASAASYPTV
Text: (§3) The Schistosoma mansoni cathepsin B1 (SmCB1) was also produced in our laboratory using P. pastoris as described above. The human cathepsin B (HsCB) and cathepsin L1 (HsCL1) were produced in human embryonic kidney cells (Sigma-Aldrich).
as §2
A panel of 12 commercially available cysteine peptidase inhibitors that preferentially target mammalian cathepsin B (Ca074 and Ca074-OMe), cathepsin L (L, L1, LII, LIII and LIV) cathepsin S (S) and cathepsin K (KI, KII and KIII) were screened against the FhCBs, FhCL3 and, as controls, HsCB and HsCL1. The broad-range cysteine peptidase inhibitor Z-Phe-Ala-FMK was also included (Figure 5).
(§4) Figure 5 Profile of inhibition of FhCB1, FhCB2, FhCB3 and FhCL3. Commercially available inhibitors of cathepsin B (Ca074 and Ca07a-OMe), cathepsin L (L, L1, LII, LIII and LIV), cathepsin K (KI, KII and KIII), cathepsin S and the broad-spectrum papain peptidase inhibitor Z-Phe-Ala-FMK (A–L) were used to determine and compare the inhibition constant against recombinants FhCB1, FhCB2, FhCB3, FhCL3, HsCB and HsCL1. Activity is represented as the percentage of enzymatic activity observed by hydrolysis of a fluorogenic quenched peptide substrate following a pre-incubation with inhibitor in relation to the activity of the enzyme alone. Error bars indicate standard deviation of three replicates.

[1] = system: Cc1cc(=O)oc2cc(NC(=O)[C@H](CCCNC(=N)N)NC(=O)[C@H](Cc3ccccc3)NC(=O)OCc3ccccc3)ccc12; assay: purified protein, by the assay type; settings: substrate 2000–4 μM, optimum pH, ± standard deviation, pH 7.0, 37.0 °C
Protocol: (§5) To determine the kinetic constants, Kcat, KM and Kcat/KM of the activated peptidases against the Z-Phe-Arg-AMC, Z-Gly-Pro-Arg-AMC and Z-Val-Ile-Arg-AMC substrates were used at concentrations of 2000–4 μM over a series of 10 dilutions using enzymes, buffer and assay conditions as described above. The kinetic constants, KM and Vmax, were calculated using the Michaelis–Menten equation (Equation (1)) in a non-linear regression analysis of initial reaction velocity against substrate concentration (built into GraphPad Prism 5). The value of KM can then be fitted to Equation (2) to determine the catalytic constant Kcat. (1) ν=d[P]/dt=Vmax[S]/KM+[S] where ν is the initial reaction velocity, [P] is the concentration of the formed product, [S] is the substrate concentration, Vmax is the maximum rate achieved by the system and KM is the Michaelis–Menten constant, which represents the concentration of substrate at which the reaction has a rate equal to half of Vmax. (2) ν=Kcat[Et]{}[S]/KM+[S] where [Et] is the enzyme concentration and Kcat is the catalytic constant, representing the measure of substrate molecules converted to product by enzyme per second.

[2] = system: Cc1cc(=O)oc2cc(NC(=O)[C@H](CCCNC(=N)N)NC(=O)[C@@H]3CCCN3C(=O)CNC(=O)OCc3ccccc3)ccc12; assay: purified protein, by the assay type; settings: substrate 2000–4 μM, optimum pH, ± standard deviation, pH 7.0, 37.0 °C
Protocol: as §5

[3] = system: CC[C@H](C)[C@H](NC(=O)[C@@H](NC(=O)OCc1ccccc1)C(C)C)C(=O)N[C@@H](CCCNC(=N)N)C(=O)Nc1ccc2c(C)cc(=O)oc2c1; assay: purified protein, by the assay type; settings: other: FhCB3; substrate 2000–4 μM, optimum pH; ± standard deviation; pH 7.0; 37.0 °C
Protocol: as §5

human cathepsin B (HsCB) = molecular target: T2, human cathepsin B (HsCB) (Homo sapiens, UniProt P07858); assay: Inhibitor screen against human cathepsin B control; format: biochemical
T2 construct: purchased Sigma-Aldrich; host or cells: human embryonic kidney cells
Text: as §3
as §2, with “All the assays were carried out in 0.1 M C-P buffer with 1 mM DTT and 0.01% Brij® L23, at the pH corresponding to the optimum for each enzyme in a total 200 µL reaction volume. The peptidases (140 nM) were pre-incubated with the inhibitor (1000-15 nM) at room temperature, for 30 min, before starting the reaction by the addition of the substrate that was optimal for each enzyme (FhCB1, Z-Phe-Arg-AMC; FhCB2 and FhCB3, Z-Val-Ile-Arg-AMC; FhCL3, Z-Gly-Pro-Arg-AMC).” left out
The broad-range cysteine peptidase inhibitor Z-Phe-Ala-FMK was also included (Figure 5).
as §4, with “Activity is represented as the percentage of enzymatic activity observed by hydrolysis of a fluorogenic quenched peptide substrate following a pre-incubation with inhibitor in relation to the activity of the enzyme alone.” left out

[4] = recombinant FhCB2 140 nM, 30 min pre-incubation, substrate Z-Val-Ile-Arg-AMC at KM, optimum pH, ± SEM
[5] = recombinant FhCB1 140 nM, 30 min pre-incubation, substrate Z-Phe-Arg-AMC at KM, optimum pH, ± SEM
[6] = recombinant FhCL3 140 nM, 30 min pre-incubation, substrate Z-Gly-Pro-Arg-AMC at KM, optimum pH, ± SEM
[7] = recombinant FhCB3 140 nM, 30 min pre-incubation, substrate Z-Val-Ile-Arg-AMC at KM, optimum pH, ± SEM

Compound: CC(C)C[C@H](NC(=O)OCc1ccccc1)C(=O)NNC(=O)NNC(=O)[C@H](CC(C)C)NC(=O)C(N)Cc1ccccc1 (stereo partly drawn) [KIII]
- inhibition of enzymatic activity (inhibitor screen, Figure 5), in words (FhCB2): no effect; also recorded: generally poor inhibitors; also recorded: not inhibited
- inhibition of enzymatic activity (inhibitor screen, Figure 5), in words (FhCB1): weak inhibitors; also recorded: generally poor inhibitors
- inhibition of enzymatic activity (inhibitor screen, Figure 5), in words (FhCL3): reduced
- inhibition of enzymatic activity (inhibitor screen, Figure 5), in words (FhCB3): abrogated the activity; also recorded: reduced

- inhibition of enzymatic activity (inhibitor screen, Figure 5), in words (cathepsin L1 (HsCL1)): specificity for HsCL1 over HsCBs
Compound: CC[C@H](C)[C@H](NS(=O)(=O)c1cccc2ccccc12)C(=O)N[C@H](C=O)Cc1c[nH]c2ccccc12 [LIV]

Compound: CC(C)C[C@H](NC(=O)OCc1ccccc1)C(=O)NCC(=O)CNC(=O)[C@H](CC(C)C)NC(=O)OCc1ccccc1 [KI]
- inhibition of enzymatic activity (inhibitor screen, Figure 5), in words (FhCB2): generally poor inhibitors; also recorded: not inhibited
- inhibition of enzymatic activity (inhibitor screen, Figure 5), in words (FhCB1): generally poor inhibitors
- inhibition of enzymatic activity (inhibitor screen, Figure 5), in words (FhCL3): reduced
- inhibition of enzymatic activity (inhibitor screen, Figure 5), in words (FhCB3): reduced

- inhibition of enzymatic activity (inhibitor screen, Figure 5), in words (cathepsin L1 (HsCL1)): specificity for HsCL1 over HsCBs
Compound: COc1ccc(C(=O)ONC(=O)CNC(=O)C(Cc2ccccc2)NC(=O)OCc2ccccc2)cc1 (stereo not drawn) [LIII]

Compound: FhCB1 (Fasciola hepatica)
- Km ([1]; other: FhCB1): 69 ± 5 µM
- kcat ([1]; other: FhCB1): 1.0 ± 0.2 s⁻¹
- kcat/Km ([1]; other: FhCB1): 13,596 M^-1S^-1

Compound: O=C(NCc1ccccc1)C(Cc1ccccc1)NC(=O)C1OC1C(=O)NCCc1ccc(O)cc1 (stereo not drawn) [L]
- inhibition of enzymatic activity (inhibitor screen, Figure 5), in words (cathepsin L1 (HsCL1)): specificity for HsCL1 over HsCBs
- inhibition of enzymatic activity (inhibitor screen, Figure 5), in words (FhCB2): did not inhibit
- inhibition of enzymatic activity (inhibitor screen, Figure 5), in words (FhCB1): did not inhibit
- inhibition of enzymatic activity (inhibitor screen, Figure 5), in words (FhCL3): significantly reduced
- inhibition of enzymatic activity (inhibitor screen, Figure 5), in words (FhCB3): significantly reduced

Compound: FhCB3 (Fasciola hepatica)
- Km ([1]; other: FhCB3): 27 ± 2 µM
- kcat ([1]; other: FhCB3): 0.05 ± 0.007 s⁻¹
- kcat/Km ([1]; other: FhCB3): 1708 M^-1S^-1
- Km ([2]; other: FhCB3): 40 ± 4 µM
- kcat ([2]; other: FhCB3): 0.02 ± 0.002 s⁻¹
- kcat/Km ([2]; other: FhCB3): 579 M^-1S^-1
- Km [3]: 42 ± 4 µM
- kcat [3]: 0.1 ± 0.004 s⁻¹
- kcat/Km [3]: 2266 M^-1S^-1

Compound: O=C(NC(Cc1ccccc1)C(=O)NC(Cc1ccccc1)C(=O)CF)OCc1ccccc1 (stereo not drawn) [Inhibitor L1] (Cbz-Phe-Phe-CH2F; configuration not given here)
- inhibition of enzymatic activity (inhibitor screen, Figure 5), in words (cathepsin L1 (HsCL1)): specificity for HsCL1 over HsCBs
- inhibition of enzymatic activity (inhibitor screen, Figure 5), in words (FhCB1): most effective at blocking
- inhibition of enzymatic activity (inhibitor screen, Figure 5), in words (FhCB3): most effective at blocking

Compound: CCCNC(=O)[C@H]1O[C@@H]1C(=O)N[C@H](C(=O)N1CCC[C@H]1C(=O)O)[C@@H](C)CC [Ca074]
- inhibition of enzymatic activity (inhibitor screen, Figure 5), in words (FhCB2): poor inhibitors; also recorded: very poor inhibitors
- inhibition constant Ki (FhCB2; [4]): poor inhibition
- Ki (FhCB2; [4]): 5930 ± 567 nM
- inhibition of enzymatic activity (inhibitor screen, Figure 5), in words (FhCB1): poor inhibitors; also recorded: very poor inhibitors
- inhibition constant Ki (FhCB1; [5]): poor inhibition
- Ki (FhCB1; [5]): 7320 ± 934 nM
- inhibition of enzymatic activity (inhibitor screen, Figure 5), in words (FhCL3): poor inhibitors
- inhibition constant Ki (FhCL3; [6]): poor inhibition
- Ki (FhCL3; [6]): 603 ± 133 nM
- inhibition of enzymatic activity (inhibitor screen, Figure 5), in words (FhCB3): poor inhibitors; also recorded: very poor inhibitors
- inhibition constant Ki (FhCB3; [7]): poor inhibition
- Ki (FhCB3; [7]): 540 ± 45.2 nM
- inhibition of enzymatic activity (inhibitor screen, Figure 5), in words (human cathepsin B (HsCB)): selective for HsCB compared to HsCL1

Compound: FhCL3 (Fasciola hepatica)
- Km ([2]; other: FhCL3): 27 ± 2 µM
- kcat ([2]; other: FhCL3): 0.5 ± 0.07 s⁻¹
- kcat/Km ([2]; other: FhCL3): 17,960 M^-1S^-1

Compound: CC(C)C[C@H](NC(=O)OCc1ccccc1)C(=O)NNC(=O)NNC(=O)[C@H](CC(C)C)NC(=O)C(Cc1ccccc1)NC(=O)OC(C)(C)C (stereo partly drawn) [KII]
- inhibition of enzymatic activity (inhibitor screen, Figure 5), in words (FhCB2): no effect; also recorded: generally poor inhibitors; also recorded: not inhibited
- Ki (FhCB2; [4]): > 1000 nM
- inhibition of enzymatic activity (inhibitor screen, Figure 5), in words (FhCB1): weak inhibitors; also recorded: generally poor inhibitors
- Ki (FhCB1; [5]): 466 ± 40.6 nM
- inhibition of enzymatic activity (inhibitor screen, Figure 5), in words (FhCL3): reduced
- Ki (FhCL3; [6]): 0.7 ± 0.19 nM
- inhibition of enzymatic activity (inhibitor screen, Figure 5), in words (FhCB3): abrogated the activity; also recorded: reduced
- Ki (FhCB3; [7]): 227 ± 28.3 nM
